Source: ChEMBL document CHEMBL2074363, “Human organic anion transporters mediate the transport of tetracycline” (Jpn J Pharmacol, 2002)

Tests used:
Format in all cases: functional, cell-based
[1] = biological target: T1, Solute carrier family 22 member 6 (Homo sapiens, UniProt Q4U2R8); experiment: TP_TRANSPORTER: inhibition of PAH uptake (PAH: 5 uM, Minocycline: 500 uM) in OAT1-expressing S2 cells; conditions: s2, 500 µM
T1 sequence (Q4U2R8 whole entry): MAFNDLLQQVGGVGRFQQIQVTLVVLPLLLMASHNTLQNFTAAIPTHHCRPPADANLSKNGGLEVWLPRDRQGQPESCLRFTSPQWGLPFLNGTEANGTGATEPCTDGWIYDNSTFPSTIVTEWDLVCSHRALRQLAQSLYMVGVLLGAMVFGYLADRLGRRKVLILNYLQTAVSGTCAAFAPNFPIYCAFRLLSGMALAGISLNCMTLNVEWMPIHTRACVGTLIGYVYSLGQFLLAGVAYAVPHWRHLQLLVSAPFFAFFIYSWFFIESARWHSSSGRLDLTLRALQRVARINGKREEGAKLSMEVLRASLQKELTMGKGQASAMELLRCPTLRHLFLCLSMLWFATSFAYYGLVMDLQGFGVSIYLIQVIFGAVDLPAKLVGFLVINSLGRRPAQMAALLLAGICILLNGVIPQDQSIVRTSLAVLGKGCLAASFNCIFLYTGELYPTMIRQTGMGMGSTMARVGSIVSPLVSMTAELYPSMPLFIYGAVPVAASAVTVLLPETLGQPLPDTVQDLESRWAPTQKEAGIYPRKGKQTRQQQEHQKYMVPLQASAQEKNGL

[2] = biological target: T2, Organic anion transporter 3 (Homo sapiens, UniProt Q8TCC7); experiment: TP_TRANSPORTER: inhibition of E1S uptake (E1S: 0.05 uM, Minocycline: 50 uM) in OAT3-expressing S2 cells; conditions: s2, 50 µM
T2 sequence (Q8TCC7 whole entry): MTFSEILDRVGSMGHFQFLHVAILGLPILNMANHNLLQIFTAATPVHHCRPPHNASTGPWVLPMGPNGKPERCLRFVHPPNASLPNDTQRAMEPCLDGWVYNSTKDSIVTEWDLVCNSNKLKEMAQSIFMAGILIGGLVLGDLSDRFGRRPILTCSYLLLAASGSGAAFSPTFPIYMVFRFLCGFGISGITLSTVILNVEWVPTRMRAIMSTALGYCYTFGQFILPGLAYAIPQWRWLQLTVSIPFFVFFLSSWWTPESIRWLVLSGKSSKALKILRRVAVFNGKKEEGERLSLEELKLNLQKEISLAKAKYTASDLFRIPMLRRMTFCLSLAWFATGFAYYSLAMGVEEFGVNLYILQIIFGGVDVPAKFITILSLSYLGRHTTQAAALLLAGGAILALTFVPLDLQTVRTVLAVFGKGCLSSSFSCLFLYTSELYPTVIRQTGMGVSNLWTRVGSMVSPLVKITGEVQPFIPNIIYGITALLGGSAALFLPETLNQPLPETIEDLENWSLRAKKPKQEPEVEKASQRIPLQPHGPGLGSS

[3] = biological target: T3, Solute carrier family 22 member 11 (Homo sapiens, UniProt Q9NSA0); experiment: TP_TRANSPORTER: inhibition of E1S uptake (E1S: 0.05 uM, Minocycline: 50 uM) in OAT4-expressing S2 cells; conditions: mouse, s2, 50 µM
T3 sequence (Q9NSA0 whole entry): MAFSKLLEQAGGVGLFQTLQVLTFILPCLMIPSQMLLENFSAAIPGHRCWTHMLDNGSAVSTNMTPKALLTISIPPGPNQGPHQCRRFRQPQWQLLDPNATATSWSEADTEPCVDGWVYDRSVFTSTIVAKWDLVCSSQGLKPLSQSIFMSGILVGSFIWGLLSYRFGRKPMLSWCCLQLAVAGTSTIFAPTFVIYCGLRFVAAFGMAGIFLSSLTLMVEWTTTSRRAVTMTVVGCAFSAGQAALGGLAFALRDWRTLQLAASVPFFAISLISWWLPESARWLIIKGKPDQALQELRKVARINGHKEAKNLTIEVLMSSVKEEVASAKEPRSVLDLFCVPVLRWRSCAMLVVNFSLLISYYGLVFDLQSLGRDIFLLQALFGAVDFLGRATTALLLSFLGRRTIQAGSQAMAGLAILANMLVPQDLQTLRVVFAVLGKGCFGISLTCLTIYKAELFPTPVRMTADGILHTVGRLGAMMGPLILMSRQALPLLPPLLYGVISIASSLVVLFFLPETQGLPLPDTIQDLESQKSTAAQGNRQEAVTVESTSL

[4] = biological target: T4, Solute carrier family 22 member 7 (Homo sapiens, UniProt Q9Y694); experiment: TP_TRANSPORTER: inhibition of PGF2alpha uptake (PGF2alpha: 0.005 uM, Minocycline: 5 uM) in OAT2-expressing S2 cells; conditions: s2, 5 µM
T4 sequence (Q9Y694 whole entry): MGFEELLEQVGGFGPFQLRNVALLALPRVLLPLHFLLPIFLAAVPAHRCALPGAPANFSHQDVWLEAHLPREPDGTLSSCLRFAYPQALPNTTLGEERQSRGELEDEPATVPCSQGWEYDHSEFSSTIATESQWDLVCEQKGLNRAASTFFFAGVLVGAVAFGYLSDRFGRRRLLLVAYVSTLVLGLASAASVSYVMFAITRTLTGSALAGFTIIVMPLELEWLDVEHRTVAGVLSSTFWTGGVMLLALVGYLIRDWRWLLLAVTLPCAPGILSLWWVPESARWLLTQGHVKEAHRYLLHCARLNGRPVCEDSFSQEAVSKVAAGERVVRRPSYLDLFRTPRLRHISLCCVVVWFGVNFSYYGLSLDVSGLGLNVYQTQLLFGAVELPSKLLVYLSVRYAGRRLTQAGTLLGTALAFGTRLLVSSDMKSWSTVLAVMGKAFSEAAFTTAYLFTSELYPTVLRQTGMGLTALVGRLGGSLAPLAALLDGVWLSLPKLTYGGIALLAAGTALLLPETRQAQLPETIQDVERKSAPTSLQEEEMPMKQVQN

[5] = biological target: T2, Organic anion transporter 3; experiment: TP_TRANSPORTER: inhibition of E1S uptake (E1S: 0.05 uM, Doxycycline: 50 uM) in OAT3-expressing S2 cells; conditions: s2, 50 µM
[6] = biological target: T3, Solute carrier family 22 member 11; experiment: TP_TRANSPORTER: inhibition of E1S uptake (E1S: 0.05 uM, Doxycycline: 50 uM) in OAT4-expressing S2 cells; conditions: mouse, s2, 50 µM
[7] = biological target: T1, Solute carrier family 22 member 6; experiment: TP_TRANSPORTER: inhibition of PAH uptake (PAH: 5 uM, Doxycycline: 500 uM) in OAT1-expressing S2 cells; conditions: s2, 500 µM
[8] = biological target: T1, Solute carrier family 22 member 6; experiment: TP_TRANSPORTER: inhibition of PAH uptake (PAH: 5 uM, Tetracycline: 1000 uM) in OAT1-expressing S2 cells; conditions: s2, 1000 µM
[9] = biological target: T2, Organic anion transporter 3; experiment: TP_TRANSPORTER: inhibition of E1S uptake (E1S: 0.05 uM, Tetracycline: 50 uM) in OAT3-expressing S2 cells; conditions: mouse, s2, 50 µM
[10] = biological target: T4, Solute carrier family 22 member 7; experiment: TP_TRANSPORTER: inhibition of PGF2alpha uptake (PGF2alpha: 0.005 uM, Tetracycline: 5 uM) in OAT2-expressing S2 cells; conditions: mouse, s2, 5 µM
[11] = biological target: T3, Solute carrier family 22 member 11; experiment: TP_TRANSPORTER: inhibition of E1S uptake (E1S: 0.05 uM, Tetracycline: 50 uM) in OAT4-expressing S2 cells; conditions: mouse, s2, 50 µM
[12] = biological target: T1, Solute carrier family 22 member 6; experiment: TP_TRANSPORTER: inhibition of PAH uptake (PAH: 5 uM, Oxytetracycline: 500 uM) in OAT1-expressing S2 cells; conditions: mouse, s2, 500 µM
[13] = biological target: T3, Solute carrier family 22 member 11; experiment: TP_TRANSPORTER: inhibition of E1S uptake (E1S: 0.05 uM, Oxytetracycline: 50 uM) in OAT4-expressing S2 cells; conditions: mouse, s2, 50 µM
[14] = biological target: T4, Solute carrier family 22 member 7; experiment: TP_TRANSPORTER: inhibition of PGF2alpha uptake (PGF2alpha: 0.005 uM, Oxytetracycline: 5 uM) in OAT2-expressing S2 cells; conditions: s2, 5 µM
[15] = biological target: T2, Organic anion transporter 3; experiment: TP_TRANSPORTER: inhibition of E1S uptake (E1S: 0.05 uM, Oxytetracycline: 50 uM) in OAT3-expressing S2 cells; conditions: s2, 50 µM
[16] = substrate: CN(C)[C@@H]1C(O)=C(C(N)=O)C(=O)[C@@]2(O)C(O)=C3C(=O)c4c(O)cccc4[C@@](C)(O)[C@H]3C[C@@H]12; experiment: TP_TRANSPORTER: uptake in OAT3-expressing S2 cells
[17] = substrate: CN(C)[C@@H]1C(O)=C(C(N)=O)C(=O)[C@@]2(O)C(O)=C3C(=O)c4c(O)cccc4[C@@](C)(O)[C@H]3C[C@@H]12; experiment: TP_TRANSPORTER: uptake in OAT2-expressing S2 cells
[18] = substrate: CN(C)[C@@H]1C(O)=C(C(N)=O)C(=O)[C@@]2(O)C(O)=C3C(=O)c4c(O)cccc4[C@@](C)(O)[C@H]3C[C@@H]12; experiment: TP_TRANSPORTER: uptake in OAT4-expressing S2 cells

CN(C)c1ccc(O)c2c1C[C@H]1C[C@H]3[C@H](N(C)C)C(O)=C(C(N)=O)C(=O)[C@@]3(O)C(O)=C1C2=O [MINOCYCLINE]
Activity [1]: inhibitor [(at a rough estimate) 10 % of control] | Activity [2]: is not an inhibitor [-] | Activity [3]: is not an inhibitor [-] | Activity [4]: inhibitor [(at a rough estimate) 80 % of control]

C[C@H]1c2cccc(O)c2C(=O)C2=C(O)[C@]3(O)C(=O)C(C(N)=O)=C(O)[C@@H](N(C)C)[C@@H]3[C@@H](O)[C@@H]21.O [DOXYCYCLINE]
Activity [5]: is not an inhibitor [-] | Activity [6]: is not an inhibitor [-] | Activity [7]: inhibitor [(at a rough estimate) 25 % of control]

CN(C)[C@@H]1C(O)=C(C(N)=O)C(=O)[C@@]2(O)C(O)=C3C(=O)c4c(O)cccc4[C@@](C)(O)[C@H]3C[C@@H]12 [TETRACYCLINE]
Activity [8]: inhibitor [(at a rough estimate) 45 % of control] | Activity [9]: is not an inhibitor [-] | Activity [10]: inhibitor [(at a rough estimate) 85 % of control] | Activity [11]: inhibitor [(at a rough estimate) 75 % of control]

CN(C)[C@@H]1C(O)=C(C(N)=O)C(=O)[C@@]2(O)C(O)=C3C(=O)c4c(O)cccc4[C@@](C)(O)[C@H]3[C@H](O)[C@@H]12 [OXYTETRACYCLINE]
Activity [12]: inhibitor [(at a rough estimate) 20 % of control] | Activity [13]: is not an inhibitor [-] | Activity [14]: inhibitor [(at a rough estimate) 80 % of control] | Activity [15]: is not an inhibitor [-]

B1: Organic anion transporter 3 (Homo sapiens) (protein)
chain: MTFSEILDRVGSMGHFQFLHVAILGLPILNMANHNLLQIFTAATPVHHCRPPHNASTGPWVLPMGPNGKPERCLRFVHPPNASLPNDTQRAMEPCLDGWVYNSTKDSIVTEWDLVCNSNKLKEMAQSIFMAGILIGGLVLGDLSDRFGRRPILTCSYLLLAASGSGAAFSPTFPIYMVFRFLCGFGISGITLSTVILNVEWVPTRMRAIMSTALGYCYTFGQFILPGLAYAIPQWRWLQLTVSIPFFVFFLSSWWTPESIRWLVLSGKSSKALKILRRVAVFNGKKEEGERLSLEELKLNLQKEISLAKAKYTASDLFRIPMLRRMTFCLSLAWFATGFAYYSLAMGVEEFGVNLYILQIIFGGVDVPAKFITILSLSYLGRHTTQAAALLLAGGAILALTFVPLDLQTVRTVLAVFGKGCLSSSFSCLFLYTSELYPTVIRQTGMGVSNLWTRVGSMVSPLVKITGEVQPFIPNIIYGITALLGGSAALFLPETLNQPLPETIEDLENWSLRAKKPKQEPEVEKASQRIPLQPHGPGLGSS
Km [16]: 566 µM

B2: Solute carrier family 22 member 7 (Homo sapiens) (protein)
chain: MGFEELLEQVGGFGPFQLRNVALLALPRVLLPLHFLLPIFLAAVPAHRCALPGAPANFSHQDVWLEAHLPREPDGTLSSCLRFAYPQALPNTTLGEERQSRGELEDEPATVPCSQGWEYDHSEFSSTIATESQWDLVCEQKGLNRAASTFFFAGVLVGAVAFGYLSDRFGRRRLLLVAYVSTLVLGLASAASVSYVMFAITRTLTGSALAGFTIIVMPLELEWLDVEHRTVAGVLSSTFWTGGVMLLALVGYLIRDWRWLLLAVTLPCAPGILSLWWVPESARWLLTQGHVKEAHRYLLHCARLNGRPVCEDSFSQEAVSKVAAGERVVRRPSYLDLFRTPRLRHISLCCVVVWFGVNFSYYGLSLDVSGLGLNVYQTQLLFGAVELPSKLLVYLSVRYAGRRLTQAGTLLGTALAFGTRLLVSSDMKSWSTVLAVMGKAFSEAAFTTAYLFTSELYPTVLRQTGMGLTALVGRLGGSLAPLAALLDGVWLSLPKLTYGGIALLAAGTALLLPETRQAQLPETIQDVERKSAPTSLQEEEMPMKQVQN
Km [17]: 440 µM

B3: Solute carrier family 22 member 11 (Homo sapiens) (protein)
chain: MAFSKLLEQAGGVGLFQTLQVLTFILPCLMIPSQMLLENFSAAIPGHRCWTHMLDNGSAVSTNMTPKALLTISIPPGPNQGPHQCRRFRQPQWQLLDPNATATSWSEADTEPCVDGWVYDRSVFTSTIVAKWDLVCSSQGLKPLSQSIFMSGILVGSFIWGLLSYRFGRKPMLSWCCLQLAVAGTSTIFAPTFVIYCGLRFVAAFGMAGIFLSSLTLMVEWTTTSRRAVTMTVVGCAFSAGQAALGGLAFALRDWRTLQLAASVPFFAISLISWWLPESARWLIIKGKPDQALQELRKVARINGHKEAKNLTIEVLMSSVKEEVASAKEPRSVLDLFCVPVLRWRSCAMLVVNFSLLISYYGLVFDLQSLGRDIFLLQALFGAVDFLGRATTALLLSFLGRRTIQAGSQAMAGLAILANMLVPQDLQTLRVVFAVLGKGCFGISLTCLTIYKAELFPTPVRMTADGILHTVGRLGAMMGPLILMSRQALPLLPPLLYGVISIASSLVVLFFLPETQGLPLPDTIQDLESQKSTAAQGNRQEAVTVESTSL
Km [18]: 123 µM
